Where a name gives a salt, the structure may show the parent alone. Calls of active or inactive are those of the source.
Tests used:
Cytochrome P450 1A2 = target: T1, Cytochrome P450 1A2 (Homo sapiens, UniProt P05177);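 note: PubChem cytochrome P450 panel assay, CYP1A2 panel member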
T1 sequence (P05177 whole entry): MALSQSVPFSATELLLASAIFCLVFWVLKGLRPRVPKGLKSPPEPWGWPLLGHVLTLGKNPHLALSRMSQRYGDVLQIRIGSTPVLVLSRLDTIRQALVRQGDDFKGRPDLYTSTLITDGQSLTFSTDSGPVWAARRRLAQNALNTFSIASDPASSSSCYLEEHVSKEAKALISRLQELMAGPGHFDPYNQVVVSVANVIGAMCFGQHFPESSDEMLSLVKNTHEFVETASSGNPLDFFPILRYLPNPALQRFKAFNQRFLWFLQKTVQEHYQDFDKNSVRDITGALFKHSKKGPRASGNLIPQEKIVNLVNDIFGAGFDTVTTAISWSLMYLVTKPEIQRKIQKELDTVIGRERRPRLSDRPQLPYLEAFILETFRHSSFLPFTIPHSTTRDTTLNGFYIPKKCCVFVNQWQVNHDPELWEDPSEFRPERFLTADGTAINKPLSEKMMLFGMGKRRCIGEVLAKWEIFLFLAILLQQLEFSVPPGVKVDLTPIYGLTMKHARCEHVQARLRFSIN

Cytochrome P450 3A4 = Cytochrome P450 3A4 (Homo sapiens, UniProt P08684); conditions: Potency;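 note: confirmatory qHTS run detecting inhibitors and substrates of CYP3A4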
[1] = target: Dual specificity tyrosine-phosphorylation-regulated kinase 1A (Rattus norvegicus, UniProt Q63470); assay type: biochemical, Homo sapiens
Large T antigen = Large T antigen (Simian virus 40, UniProt P03070); assay type: functional, Betapolyomavirus macacae;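 note: Confirmatory-stage PubChem screen for compounds that inhibit SV40 T antigen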
[2] = target: T2, Long-chain-fatty-acid--AMP ligase FadD28 (Mycobacterium tuberculosis, UniProt P9WQ59); test: Fluorescence polarization aasay to screen for inhibitors that compete for the binding of FadD28 to a bisubstrate Measured in Biochemical System Using Plate Reader - 2147-01_Inhibitor_Dose_CherryPick_Activity.; assay type: functional, Mycobacterium tuberculosis H37Rv
T2 sequence (P9WQ59 whole entry): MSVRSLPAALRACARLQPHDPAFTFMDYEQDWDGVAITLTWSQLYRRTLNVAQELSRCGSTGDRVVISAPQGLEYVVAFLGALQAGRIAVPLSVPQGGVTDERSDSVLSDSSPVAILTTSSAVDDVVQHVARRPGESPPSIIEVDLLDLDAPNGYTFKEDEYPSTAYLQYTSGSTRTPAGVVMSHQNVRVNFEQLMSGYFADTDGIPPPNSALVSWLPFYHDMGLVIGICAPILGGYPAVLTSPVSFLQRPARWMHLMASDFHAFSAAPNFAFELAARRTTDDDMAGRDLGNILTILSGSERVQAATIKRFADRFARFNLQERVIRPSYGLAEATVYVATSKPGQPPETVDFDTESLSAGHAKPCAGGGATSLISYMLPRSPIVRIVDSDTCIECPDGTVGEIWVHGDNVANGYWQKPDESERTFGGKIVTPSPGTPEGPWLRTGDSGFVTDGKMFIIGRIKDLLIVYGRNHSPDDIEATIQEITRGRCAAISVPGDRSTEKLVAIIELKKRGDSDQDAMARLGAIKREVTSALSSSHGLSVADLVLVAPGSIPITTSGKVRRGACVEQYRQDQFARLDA

[3] = target: Cyclin-dependent kinase 5/CDK5 activator 1 (Homo sapiens, UniProt Q00535); test: blockade of human CDK5 activity – biochemical, cherry-picked samples, set 2, dose response (AID 504545)
[4] = target: Dual specificity protein phosphatase 3 (Homo sapiens, UniProt P51452); test: inhibition constants for human DUSP3 – biochemical, colorimetric, SAR follow-up (AID 2004)
Dual specificity protein phosphatase 3, sequence (P51452 whole entry): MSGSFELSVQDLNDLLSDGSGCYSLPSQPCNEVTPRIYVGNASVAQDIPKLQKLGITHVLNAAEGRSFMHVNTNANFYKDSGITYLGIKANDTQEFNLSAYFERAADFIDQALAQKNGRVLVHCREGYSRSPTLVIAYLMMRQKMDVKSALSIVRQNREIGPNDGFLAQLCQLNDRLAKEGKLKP

X-box-binding protein 1 = X-box-binding protein 1 (Homo sapiens, UniProt P17861); assay type: functional, Cricetulus griseus;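 note: confirmatory dose-response counter-screen serving a CHOP assay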
Fatty acid synthase [5] = target: T3, Fatty acid synthase (Homo sapiens, UniProt P49327); test: inhibition of human FAS-TE enzyme activity – biochemical, endpoint fluorescence intensity, uHTS hits, dose response (AID 624327); assay type: functional;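 note: fluorescence from hydrolysis of an O-methyl fluorescein acyl ester substrate by the enzyme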
T3 sequence (P49327 whole entry): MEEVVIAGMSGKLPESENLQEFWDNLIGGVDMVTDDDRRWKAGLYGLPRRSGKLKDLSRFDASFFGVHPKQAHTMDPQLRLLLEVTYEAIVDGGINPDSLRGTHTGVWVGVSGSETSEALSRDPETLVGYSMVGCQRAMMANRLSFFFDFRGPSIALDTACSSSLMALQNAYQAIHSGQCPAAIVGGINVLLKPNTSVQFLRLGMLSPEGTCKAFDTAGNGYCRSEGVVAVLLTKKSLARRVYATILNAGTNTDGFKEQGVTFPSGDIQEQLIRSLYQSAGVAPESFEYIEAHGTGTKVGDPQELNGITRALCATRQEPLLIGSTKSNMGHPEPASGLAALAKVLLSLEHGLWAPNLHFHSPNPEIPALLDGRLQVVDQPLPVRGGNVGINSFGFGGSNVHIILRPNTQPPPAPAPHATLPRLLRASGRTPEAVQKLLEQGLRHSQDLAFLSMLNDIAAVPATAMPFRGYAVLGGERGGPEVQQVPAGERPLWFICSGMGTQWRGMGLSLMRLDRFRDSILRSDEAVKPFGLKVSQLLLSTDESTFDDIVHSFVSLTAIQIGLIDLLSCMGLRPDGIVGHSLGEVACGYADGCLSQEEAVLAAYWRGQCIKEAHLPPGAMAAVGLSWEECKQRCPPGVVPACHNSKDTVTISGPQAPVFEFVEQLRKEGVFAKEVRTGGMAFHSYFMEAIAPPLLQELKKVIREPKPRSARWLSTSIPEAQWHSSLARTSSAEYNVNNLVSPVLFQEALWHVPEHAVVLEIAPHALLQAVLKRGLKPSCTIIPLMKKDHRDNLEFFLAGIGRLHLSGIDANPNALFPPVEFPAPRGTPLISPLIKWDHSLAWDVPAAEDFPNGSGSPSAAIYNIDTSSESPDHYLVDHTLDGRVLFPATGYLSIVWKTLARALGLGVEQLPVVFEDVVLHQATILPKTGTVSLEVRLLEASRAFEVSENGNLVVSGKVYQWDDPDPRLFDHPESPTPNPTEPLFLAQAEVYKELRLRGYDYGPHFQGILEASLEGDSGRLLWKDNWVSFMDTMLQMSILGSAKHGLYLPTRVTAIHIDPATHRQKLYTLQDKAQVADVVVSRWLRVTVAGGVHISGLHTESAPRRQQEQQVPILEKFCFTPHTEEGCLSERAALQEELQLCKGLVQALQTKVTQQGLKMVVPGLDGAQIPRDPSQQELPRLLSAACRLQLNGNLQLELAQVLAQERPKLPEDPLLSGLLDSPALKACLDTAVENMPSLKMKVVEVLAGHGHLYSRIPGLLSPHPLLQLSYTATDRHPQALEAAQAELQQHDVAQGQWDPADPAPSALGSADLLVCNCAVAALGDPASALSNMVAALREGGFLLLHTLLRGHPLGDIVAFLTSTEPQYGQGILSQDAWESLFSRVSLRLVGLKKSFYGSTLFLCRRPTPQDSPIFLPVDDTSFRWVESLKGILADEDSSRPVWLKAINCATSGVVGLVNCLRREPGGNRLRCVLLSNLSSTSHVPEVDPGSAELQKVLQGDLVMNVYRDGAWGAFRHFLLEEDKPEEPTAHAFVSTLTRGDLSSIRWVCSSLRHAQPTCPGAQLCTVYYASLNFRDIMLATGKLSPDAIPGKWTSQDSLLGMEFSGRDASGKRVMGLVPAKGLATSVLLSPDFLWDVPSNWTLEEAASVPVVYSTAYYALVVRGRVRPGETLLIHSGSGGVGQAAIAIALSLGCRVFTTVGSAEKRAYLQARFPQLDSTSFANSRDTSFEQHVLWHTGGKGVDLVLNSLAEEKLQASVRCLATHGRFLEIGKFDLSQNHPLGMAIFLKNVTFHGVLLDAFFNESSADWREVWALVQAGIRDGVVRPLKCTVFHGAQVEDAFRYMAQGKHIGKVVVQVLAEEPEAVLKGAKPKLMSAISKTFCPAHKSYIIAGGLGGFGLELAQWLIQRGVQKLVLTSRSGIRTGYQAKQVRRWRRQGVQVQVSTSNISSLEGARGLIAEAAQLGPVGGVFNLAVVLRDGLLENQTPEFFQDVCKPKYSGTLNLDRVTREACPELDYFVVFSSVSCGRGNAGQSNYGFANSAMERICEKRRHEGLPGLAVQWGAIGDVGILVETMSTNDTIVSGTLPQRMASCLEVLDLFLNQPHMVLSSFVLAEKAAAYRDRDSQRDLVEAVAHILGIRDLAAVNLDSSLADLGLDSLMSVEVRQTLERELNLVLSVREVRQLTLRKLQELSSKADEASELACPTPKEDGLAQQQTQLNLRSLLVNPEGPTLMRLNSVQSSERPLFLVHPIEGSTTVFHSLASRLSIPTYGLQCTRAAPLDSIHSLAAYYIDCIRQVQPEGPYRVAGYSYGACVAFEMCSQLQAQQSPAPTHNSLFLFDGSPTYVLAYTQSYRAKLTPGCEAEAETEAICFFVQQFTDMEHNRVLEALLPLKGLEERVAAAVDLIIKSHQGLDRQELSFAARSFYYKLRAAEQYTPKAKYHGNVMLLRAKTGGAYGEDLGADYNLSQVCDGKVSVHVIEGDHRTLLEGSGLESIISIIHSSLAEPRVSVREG

Fatty acid synthase [6] = target: T3, Fatty acid synthase; test: inhibition of human FAS-TE enzyme activity – biochemical, kinetic fluorescence intensity, dose response (AID 624326); assay type: functional;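 note: rate of fluorescence rise from hydrolysis of a fluorogenic O-methyl fluorescein ester substrate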
[7] = target: T4, Small ubiquitin-related modifier 1 (Homo sapiens, UniProt P63165); test: SUMO1 protein-protein binding blockers, potency – biochemical, FRET, dose response (AID 624383); assay type: functional; conditions: read-out: IC50_Mean
T4 sequence (P63165 whole entry): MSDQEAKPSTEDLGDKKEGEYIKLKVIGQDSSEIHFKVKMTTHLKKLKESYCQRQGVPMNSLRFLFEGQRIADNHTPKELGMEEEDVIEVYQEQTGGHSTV

[8] = Cytotoxicity screening for potential Inhibitors of Bacterial Capsule Biogenesis. [Related pubchem assays (depositor defined):AID488970]; assay type: functional
Prothrombin = Prothrombin (Bos taurus, UniProt P00735); test: thrombin protease inhibitors – biochemical, fluorescence polarization, uHTS hits, dose response (AID 602369); assay type: functional
[9] = target: T4, Small ubiquitin-related modifier 1; test: SUMO1 protein interaction blockers, potency – biochemical, fluorescence polarization, uHTS hits, dose response (AID 624382); assay type: functional; conditions: read-out: IC50_Mean
Vero = test: cells; assay type: functional, cell-based; conditions: Chlorocebus sabaeus
[10] = target: 26S proteasome non-ATPase regulatory subunit 14 (Homo sapiens, UniProt O00487); test: inhibition of proteasome subunit RPN11 – biochemical, fluorescence polarization, uHTS hits, confirmation (AID 602368); assay type: functional
[11] = target: 72 kDa type IV collagenase (Homo sapiens, UniProt P08253); test: Dose Response validation of uHTS RPN11 inhibitor hits using a MMP-2 Fluorescence assay.; assay type: functional
cells [12] = assay type: functional, cell-based
cells [13] = assay type: functional, cell-based; remark: listed apart in the source
[14] = HEK-293T cell viability reduction – luminescence, B-cell screen hits, cytotoxicity control for BCR NF-kB inhibitor project, dose response (AID 489021); assay type: functional, cell-based;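 note: HEK-293T cells carrying an NF-kB luciferase reporter; cells exposed to compound for about 14 hours before viability readout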
Hexokinase HKDC1 = target: T5, Hexokinase HKDC1 (Homo sapiens, UniProt Q2TB90); test: inhibition of HKDC1 glucose phosphorylation – biochemical, W721R variant, dose response (AID 504729); assay type: functional
T5 sequence (Q2TB90 whole entry): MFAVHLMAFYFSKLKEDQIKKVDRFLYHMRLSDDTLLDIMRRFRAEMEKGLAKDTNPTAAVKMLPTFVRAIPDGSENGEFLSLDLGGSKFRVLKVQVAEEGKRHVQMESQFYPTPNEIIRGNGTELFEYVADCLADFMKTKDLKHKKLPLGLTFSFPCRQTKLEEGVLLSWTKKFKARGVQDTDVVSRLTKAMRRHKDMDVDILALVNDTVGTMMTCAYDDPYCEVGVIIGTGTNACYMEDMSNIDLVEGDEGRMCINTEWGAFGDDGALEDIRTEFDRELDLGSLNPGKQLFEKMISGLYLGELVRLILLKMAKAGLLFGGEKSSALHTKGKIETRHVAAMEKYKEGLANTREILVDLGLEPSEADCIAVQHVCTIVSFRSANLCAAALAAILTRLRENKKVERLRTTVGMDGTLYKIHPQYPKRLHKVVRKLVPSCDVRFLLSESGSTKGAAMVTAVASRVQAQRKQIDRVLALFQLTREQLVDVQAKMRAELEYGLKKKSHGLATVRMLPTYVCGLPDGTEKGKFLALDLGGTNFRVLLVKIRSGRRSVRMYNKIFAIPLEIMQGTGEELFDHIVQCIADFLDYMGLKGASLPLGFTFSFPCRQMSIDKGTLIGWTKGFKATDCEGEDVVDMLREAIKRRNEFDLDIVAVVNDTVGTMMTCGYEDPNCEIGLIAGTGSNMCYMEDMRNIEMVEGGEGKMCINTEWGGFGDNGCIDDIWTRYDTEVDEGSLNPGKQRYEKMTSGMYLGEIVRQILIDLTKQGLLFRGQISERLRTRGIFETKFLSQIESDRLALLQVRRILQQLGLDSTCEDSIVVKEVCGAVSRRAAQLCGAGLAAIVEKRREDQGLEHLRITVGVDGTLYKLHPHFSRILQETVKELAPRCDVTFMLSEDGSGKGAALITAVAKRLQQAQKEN

[15] = viability loss of HPDE-C7K cells – cell-based, fluorescence, HTS, primary screen (AID 431); assay type: functional; conditions: Homo sapiens
[16] = HPDE-C7 pancreatic duct cell viability loss – fluorescence, HTS (AID 430); assay type: functional, cell-based; conditions: Homo sapiens
[17] = target: NACHT, LRR and PYD domains-containing protein 3 (Homo sapiens, UniProt Q96P20); test: NALP3 inhibitors in yeast, dose response, luminescent (AID 488799); assay type: functional
Protein Rev = Protein Rev (Human immunodeficiency virus type 1 group M subtype B (isolate HXB2)(HIV-1), UniProt P04618); test: blockers of HIV Rev/RRE RNA complex – biochemical, fluorescence polarization, HIV-1, dose response (AID 434976); parameters: species or system Human immunodeficiency virus 1
[18] = target: Female germline-specific tumor suppressor gld-1 (Caenorhabditis elegans, UniProt Q17339); test: blockers of GLD-1/TGE RNA complex formation – biochemical, fluorescence polarization, C. elegans, dose response (AID 2802);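 note: fluorescence polarization of labeled TGE RNA bound by purified gld-1 protein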
Wee1-like protein kinase = Wee1-like protein kinase (Homo sapiens, UniProt P30291); test: HeLa cell cycle G2/M accumulation – FACS, mechanism study for Wee1 degradation inhibitor project, late-stage follow-up, panel member Wee1 Degradation (AID 2088)
[19] = target: G2/mitotic-specific cyclin-B1 (Homo sapiens, UniProt P14635); test: HeLa cell cycle G2/M accumulation – FACS, mechanism study for Wee1 degradation inhibitor project, late-stage follow-up, panel member Cyclin B Degradation (AID 2088)
Bcl-2-like protein 10 = Bcl-2-like protein 10 (Homo sapiens, UniProt Q9HD36); test: Bcl-B/TR3 peptide binding disruption – biochemical, fluorescence polarization, FITC-TR3 peptide, selectivity assay for Bfl-1 inhibitor project, primary screen (AID 748);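 note: fluorescence polarization from a fluorescein-labelled TR3 peptide binding purified Bcl-B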
[20] = target: T6, Endoribonuclease toxin MazF (Escherichia coli K-12, UniProt P0AE70); test: activation of MazEF endoribonuclease cleavage – biochemical, fluorescence, single-stranded RNA substrate, uHTS hits, dose response (AID 588481); assay type: functional
T6 sequence (P0AE70 whole entry): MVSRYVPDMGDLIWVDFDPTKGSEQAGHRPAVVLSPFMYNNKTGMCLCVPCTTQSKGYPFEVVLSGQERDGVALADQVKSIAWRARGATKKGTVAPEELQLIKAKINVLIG

[21] = target: T6, Endoribonuclease toxin MazF; test: substrate-only fluorescence increase artefacts – biochemical, single-stranded RNase substrate, counter-screen for MazEF activator project, dose response (AID 588502); assay type: functional
[22] = target: T7, Voltage-dependent T-type calcium channel subunit alpha-1H (Homo sapiens, UniProt O95180); test: Inhibitors of T-Type Calcium Channels. [Related pubchem assays (depositor defined):AID449739, AID463087, AID489005, AID493041, AID504579, AID504584, AID504619, AID504628]; assay type: functional
T7 sequence (O95180 whole entry): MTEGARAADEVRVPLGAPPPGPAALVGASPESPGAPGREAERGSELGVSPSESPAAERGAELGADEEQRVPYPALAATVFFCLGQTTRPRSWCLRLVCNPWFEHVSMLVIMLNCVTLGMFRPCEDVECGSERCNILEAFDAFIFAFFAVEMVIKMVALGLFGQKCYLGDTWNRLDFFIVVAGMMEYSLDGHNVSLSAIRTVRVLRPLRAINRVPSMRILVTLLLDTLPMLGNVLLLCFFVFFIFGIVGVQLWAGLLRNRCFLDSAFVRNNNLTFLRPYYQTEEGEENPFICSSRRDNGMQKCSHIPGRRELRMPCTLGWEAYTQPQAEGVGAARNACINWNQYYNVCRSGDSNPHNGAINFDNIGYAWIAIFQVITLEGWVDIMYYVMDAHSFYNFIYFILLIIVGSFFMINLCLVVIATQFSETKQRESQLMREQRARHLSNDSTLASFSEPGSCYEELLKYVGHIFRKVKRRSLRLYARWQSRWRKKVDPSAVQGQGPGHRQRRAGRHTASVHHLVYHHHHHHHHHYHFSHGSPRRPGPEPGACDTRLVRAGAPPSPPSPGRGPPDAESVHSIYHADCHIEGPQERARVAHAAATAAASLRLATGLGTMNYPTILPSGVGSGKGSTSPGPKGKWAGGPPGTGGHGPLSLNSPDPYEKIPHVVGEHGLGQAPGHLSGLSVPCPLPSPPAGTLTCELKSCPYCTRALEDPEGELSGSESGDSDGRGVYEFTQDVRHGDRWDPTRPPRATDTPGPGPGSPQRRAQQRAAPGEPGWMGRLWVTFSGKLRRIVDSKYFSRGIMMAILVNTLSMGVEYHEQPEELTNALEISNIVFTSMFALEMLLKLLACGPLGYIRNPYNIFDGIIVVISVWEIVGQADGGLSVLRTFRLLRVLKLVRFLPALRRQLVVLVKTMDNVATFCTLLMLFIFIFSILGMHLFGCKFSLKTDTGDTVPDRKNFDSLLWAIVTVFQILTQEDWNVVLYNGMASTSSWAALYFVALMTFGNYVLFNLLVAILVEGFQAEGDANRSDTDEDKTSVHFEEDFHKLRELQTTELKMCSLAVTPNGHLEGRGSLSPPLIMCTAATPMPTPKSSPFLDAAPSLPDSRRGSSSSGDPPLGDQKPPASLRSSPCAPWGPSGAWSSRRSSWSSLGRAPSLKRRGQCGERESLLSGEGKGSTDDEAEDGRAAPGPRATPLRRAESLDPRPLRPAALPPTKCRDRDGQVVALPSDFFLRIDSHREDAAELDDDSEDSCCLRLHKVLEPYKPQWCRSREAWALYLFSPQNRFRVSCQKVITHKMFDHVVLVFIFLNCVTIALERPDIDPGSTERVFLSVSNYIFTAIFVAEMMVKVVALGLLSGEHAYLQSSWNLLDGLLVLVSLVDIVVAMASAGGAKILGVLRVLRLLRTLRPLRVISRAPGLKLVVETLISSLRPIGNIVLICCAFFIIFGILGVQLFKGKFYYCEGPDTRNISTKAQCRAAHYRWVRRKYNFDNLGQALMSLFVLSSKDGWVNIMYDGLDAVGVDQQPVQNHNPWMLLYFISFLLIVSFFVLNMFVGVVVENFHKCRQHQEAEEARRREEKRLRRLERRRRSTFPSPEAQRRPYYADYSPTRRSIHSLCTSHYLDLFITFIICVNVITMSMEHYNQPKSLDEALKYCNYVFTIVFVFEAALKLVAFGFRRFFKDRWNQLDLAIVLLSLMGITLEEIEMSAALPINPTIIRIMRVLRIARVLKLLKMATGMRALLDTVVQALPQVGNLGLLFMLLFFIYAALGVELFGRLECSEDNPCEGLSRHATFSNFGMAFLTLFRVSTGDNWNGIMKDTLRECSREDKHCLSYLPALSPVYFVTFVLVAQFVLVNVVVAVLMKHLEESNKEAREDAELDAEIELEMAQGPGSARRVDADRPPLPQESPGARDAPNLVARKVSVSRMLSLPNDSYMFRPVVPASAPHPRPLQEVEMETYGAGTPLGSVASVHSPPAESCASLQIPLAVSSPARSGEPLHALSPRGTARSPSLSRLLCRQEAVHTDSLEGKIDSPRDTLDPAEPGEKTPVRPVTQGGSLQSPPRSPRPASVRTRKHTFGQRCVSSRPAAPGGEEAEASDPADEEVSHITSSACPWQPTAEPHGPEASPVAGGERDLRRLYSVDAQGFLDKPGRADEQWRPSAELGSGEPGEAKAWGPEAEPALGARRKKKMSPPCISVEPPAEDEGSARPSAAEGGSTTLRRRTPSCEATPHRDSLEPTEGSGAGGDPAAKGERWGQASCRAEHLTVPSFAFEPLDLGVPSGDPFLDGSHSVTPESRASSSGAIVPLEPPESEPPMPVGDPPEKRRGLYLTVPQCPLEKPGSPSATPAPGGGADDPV

[23] = target: T7, Voltage-dependent T-type calcium channel subunit alpha-1H; assay type: functional

SMILES: O=C1NC(=O)C(c2ccccc2[N+](=O)[O-])=C1Nc1ccc(O)c(Cl)c1
- AC50 (Cytochrome P450 1A2): 31.6 µM (inconclusive)
- AC50 (Cytochrome P450 3A4): 12.6 µM (inconclusive)
- AC50 [1]: 3.11 µM (active)
- IC50 (Large T antigen): 55.4 µM (active)
- AC50 [2]: 89.1 µM (active)
- AC50 [3]: 5.56 µM (active)

SMILES: Cc1cc2c(nc3s/c(=C/c4ccccc4)c(=O)n32)c(Br)c1C
- Ki [4]: 28.5 µM (inactive)

SMILES: CCCCCC1CC(CC(=O)Nc2ccc([N+](=O)[O-])cc2)C(=O)O1 (stereo not drawn)
- Absolute IC50 (XBP1) (X-box-binding protein 1): < 10 µM
- IC50 (Fatty acid synthase [5]): 16.8 µM (active)
- IC50 (Fatty acid synthase [6]): 12.5 µM (active)

SMILES: Cc1ccccc1NC(=NCCCN1CC1)Nc1ccccc1C
- IC50 [7]: 2.8 µM (active)
- CC50 [8]: 7.68 µM (active)
- IC50 (Prothrombin): 30 µM (active)
- IC50 [9]: > 66.6 µM (inactive)
- IC50 (Vero): 20.3 µM (active)
- IC50 [10]: 12.5 µM (active)
- IC50 [11]: > 100 µM (inactive)

SMILES: Cc1ccc(C)c(-n2nnnc2Sc2nnnn2-c2ccccc2)c1
- EC50 (cells [12]): > 350 µM (not active)
- EC50 (cells [13]): > 350 µM (not active)
- IC50 [14]: > 80 µM (inactive)
- IC50 (Hexokinase HKDC1): 22.6 µM (inactive)
- EC50 [15]: 9.95 µM (active)
- EC50 [16]: 8.15 µM (active)

SMILES: CC(N)C(=O)OC(C)(C)Cc1ccc(Cl)cc1 (stereo not drawn) [ALAPROCLATE HYDROCHLORIDE]
- IC50 [17]: 8.02 µM (active)

SMILES: CC(OC(=O)/C(C#N)=C/c1ccc(N(C)C)cc1)C(=O)NCc1ccco1 (stereo not drawn)
- IC50 (Protein Rev): > 75.5 µM (not active)
- IC50 [18]: 6.63 µM (active)

SMILES: COc1ccc(NC(=O)CCCOc2cc(=O)n(C)c3ccccc23)cc1Cl
- EC50 (Wee1-like protein kinase): > 49.7 µM (inactive)
- EC50 [19]: > 49.7 µM (inactive)

SMILES: Cc1ccc2cccc(S(=O)(=O)Nc3ccc4c(c3)OCO4)c2n1
- IC50 (Bcl-2-like protein 10): > 100 µM (inactive)

SMILES: CCN(CC)c1ccc2cc(-c3nnc(-c4ccccc4)o3)c(=O)oc2c1
- EC50 [20]: > 99 µM (inactive)
- EC50 [21]: > 99 µM (inactive)
- EC50 [22]: 3.19 µM (active)
- EC50 [23]: 0.931 µM (active)
